Reference: ChEMBL document CHEMBL5050832, “Compounds and methods for regulating, limiting, or inhibiting avil expression” (2020)
Calls of active or inactive are those of the source. The rule behind the calls is not given here.

Legend:
U-87 MG = experiment: Antiproliferative activity against human U87 cells; format: functional, cell-based, U-87MG ATCC
[1] = Antiproliferative activity against human astrocytes; format: functional, cell-based; conditions: Astrocyte
Homo sapiens = organism: Homo sapiens; experiment: Binding affinity towards recombinant AVIL (unknown origin) measured by thermal shift assay
SJRH30 [2] = experiment: Antiproliferative activity against human Rh30 cells; format: functional, cell-based
SJRH30 [3] = experiment: Antiproliferative activity against human Rh30 cells at 20 uM assessed as decrease in cell number measured by crystal violet staining method relative to control; format: functional, cell-based
RD [4] = experiment: Antiproliferative activity against human RD cells; format: functional, cell-based
Mesenchymal stem cells [5] = experiment: Antiproliferative activity against human mesenchymal stem cells; format: functional, cell-based
RD [6] = experiment: Antiproliferative activity against human RD cells at 20 uM assessed as decrease in cell number measured by crystal violet staining method relative to control; format: functional, cell-based
Mesenchymal stem cells [7] = experiment: Antiproliferative activity against human mesenchymal stem cells at 20 uM assessed as decrease in cell number measured by crystal violet staining method relative to control; format: functional, cell-based
U-87MG ATCC = experiment: Downregulation of LIN28B expression in human U87 cells measured by qRT-PCR assay; format: functional, cell-based

Row | SMILES | IC50 (U-87 MG) | IC50 [1] | Activity (Homo sapiens) | Activity (SJRH30 [2]) | Activity (SJRH30 [3]) | Activity (RD [4]) | Activity (Mesenchymal stem cells [5]) | Activity (RD [6]) | Activity (Mesenchymal stem cells [7]) | Activity (U-87MG ATCC)
1 | Cc1cc(N2CCCC(CO)(CCCc3ccccc3)C2)nc(N)n1 (centres undefined) | 8 µM | 5 µM |  |  |  |  |  |  |  | 
2 | Nc1nccc(N2CCCC(CO)(CCCc3ccccc3)C2)n1 (centres undefined) |  |  | Active | Active | Active | Active | inactive | Active | inactive | Active
3 | CN(Cc1ccc(Oc2ccccc2)cc1)C(=O)[C@@H]1C[C@@H](O)CN1 |  |  | Active |  |  |  |  |  |  | Active
4 | c1ccc(CCC2CCN(CC3[C@H]4CNC[C@@H]34)CC2)cc1 (some centres undefined) |  |  | Active |  |  |  |  |  |  | Active
